Read-outs that look alike come from different tables or passages of the source.
How the values were obtained:
[1] = Blood pharmacokinetics after oral dosing (fluorescence HPLC, noncompartmental WinNonlin model); format: in vivo, human; conditions: for AUC: read-out: AUCτ of metabolite; for MRT: read-out: MRT of metabolite (converted); for half-life: read-out: t1/2 of metabolite (converted)
Procedure: Study drugs were administered in the GCRC on an empty stomach between 8 and 9 AM the morning after admission (after fasting for ≥ 10 h).

[2] = system: CQ-resistant P. falciparum; conditions: cited from earlier work
[3] = Urinary excretion and renal clearance (24-hour urine collections, days 1-3)
[4] = human, whole blood, oral, 1750 mg, after 1,750 mg AQ-13 over 3 d, median (range)
[5] = human, whole blood, oral, after 700 mg AQ-13, median (range)
[6] = human, whole blood, after 600 mg oral dose of parent drug, median (range)

Row | Structure (SMILES) | time after drug administration at which metabolite/parent ratio reached 1.0 ([1]; 600 mg AQ-13, AQ-72/AQ-13 ratio) | metabolite/parent ratio in blood at the Cmax of the parent drug ([1]; 600 mg dose, AQ-72/AQ-13 (mean) or MDCQ/CQ) | time to appearance of metabolite in the blood ([1]; after oral 600 or 700 mg AQ-13 or 600 mg CQ) | AUC ([1]; human, whole blood, oral, 700 mg, after 700 mg AQ-13, median (range)) | AUC [1, 4] | MRT [1, 4] | half-life [1, 4] | Tmax ([1]; human, whole blood, oral, after 600 mg AQ-13, median, read-out: Tmax of metabolite) | MRT [1, 5] | half-life [1, 5] | AUC ([1]; human, whole blood, po, 600 mg, after 600 mg oral dose of parent drug (CQ or AQ-13), whole blood, median (range)) | MRT [1, 6] | half-life [1, 6] | Cmax ([1]; human, whole blood, after 600 mg oral dose of parent drug, median, read-out: Cmax of metabolite) | activity of major metabolite against CQ-resistant parasites [2] | mono-dealkylated metabolite/parent ratio in urine ([3]; days 1-3, AQ-72/AQ-13 and MDCQ/CQ) | detection of di-dealkylated metabolite in the blood ([1]; after oral AQ-13 or CQ) | second (di-dealkylated) metabolite/parent ratio in urine ([3]; days 1-3, AQ-73/AQ-13 and BDCQ/CQ) | detection of di-dealkylated metabolite in urine ([3]; urine collections days 1-3 after dosing)
1 | CCNCCCNc1ccnc2cc(Cl)ccc12 [AQ-72] | 3 to 6 days | 0.37 | ≤ 1 h | 262 µM·h | 440 µM·h | 17.4 days | 10.5 days | 0.625 days | 18.6 days | 12.3 days | 211 µM·h | 16.6 days | 11.1 days | 590 nM | not active against CQ-resistant parasites | 23.6% | – | – | –
2 | NCCCNc1ccnc2cc(Cl)ccc12 [AQ-73] | – | – | – | – | – | – | – | – | – | – | – | – | – | – | – | – | not detected in the blood | 5.2% | identified in urine collections
